Target: T1, panel of 442 kinases (Homo sapiens, UniProt P54760)
T1 construct: purchased KINOMEscan
T1 sequence (P54760 16-987): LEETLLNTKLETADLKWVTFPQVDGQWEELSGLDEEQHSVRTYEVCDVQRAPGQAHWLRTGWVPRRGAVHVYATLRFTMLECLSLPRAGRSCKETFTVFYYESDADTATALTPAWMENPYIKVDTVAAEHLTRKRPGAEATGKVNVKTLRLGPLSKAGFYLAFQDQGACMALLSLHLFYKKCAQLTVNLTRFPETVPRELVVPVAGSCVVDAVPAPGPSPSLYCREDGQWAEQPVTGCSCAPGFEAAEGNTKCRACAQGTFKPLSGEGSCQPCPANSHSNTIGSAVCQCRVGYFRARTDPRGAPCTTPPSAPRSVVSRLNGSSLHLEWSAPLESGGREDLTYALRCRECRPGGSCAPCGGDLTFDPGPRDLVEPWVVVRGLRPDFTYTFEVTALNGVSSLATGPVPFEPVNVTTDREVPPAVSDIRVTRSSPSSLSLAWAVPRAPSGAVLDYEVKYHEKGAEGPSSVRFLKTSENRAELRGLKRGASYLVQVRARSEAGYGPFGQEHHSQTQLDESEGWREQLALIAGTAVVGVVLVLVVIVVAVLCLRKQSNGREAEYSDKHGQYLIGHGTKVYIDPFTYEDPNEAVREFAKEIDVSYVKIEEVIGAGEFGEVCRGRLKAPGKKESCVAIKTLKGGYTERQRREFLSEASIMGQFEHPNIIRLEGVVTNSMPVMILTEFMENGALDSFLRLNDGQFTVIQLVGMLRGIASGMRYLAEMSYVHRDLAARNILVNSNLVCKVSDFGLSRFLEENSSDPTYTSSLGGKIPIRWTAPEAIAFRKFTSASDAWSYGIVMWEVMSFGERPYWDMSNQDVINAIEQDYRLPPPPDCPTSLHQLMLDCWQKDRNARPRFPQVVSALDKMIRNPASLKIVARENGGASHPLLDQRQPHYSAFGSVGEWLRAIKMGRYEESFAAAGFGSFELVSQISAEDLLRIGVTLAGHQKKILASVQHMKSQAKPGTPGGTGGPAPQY
Format: binding
Conditions: Compound Concentration 10 µM
From the text: We assessed the selectivity of members of this scaffold using the KINOMEscan methodology across a near comprehensive panel of 442 kinases [[18,27]].

COc1cc(C(=O)N2CCC(N3CCN(C)CC3)CC2)ccc1Nc1ncc2c(n1)N(C)c1ccccc1C(=O)N2C [15 (LRRK2-IN-1)]
KINOMEscan: EPHB4: 100

COc1cc(C(=O)N2CCC(N3CCN(C)CC3)CC2)ccc1Nc1ncc2c(n1)N(C1CCCC1)c1ccccc1C(=O)N2C [Compound 25, 11-cyclopentyl-2-((2-methoxy-4-(4-(4-methylpiperazin-1-yl)piperidine-1-carbonyl)phenyl)amino)-5-methyl-5H-benzo[e]pyrimido[5,4-b][1,4]diazepin-6(11H)-one]
KINOMEscan: EPHB4: 100

CCOc1cc(C(=O)N2CCC(N3CCN(C)CC3)CC2)ccc1Nc1ncc2c(n1)N(C1CCCC1)c1ccccc1C(=O)N2C [Compound 26]
KINOMEscan: EPHB4: 100
